According to ChEMBL document CHEMBL3232845 (Bioorg Med Chem Lett, 2014):

Assays:
[1] = target: Protein kinase C eta type (Homo sapiens) (UniProt P24723); assay: Inhibition of human PKCeta assessed as enzyme activity at 1 uM relative to control; design: scale not given: the % may be the effect or the level left
[2] = target: Tyrosine-protein kinase Yes (Homo sapiens) (UniProt P07947); assay: Inhibition of human Yes assessed as enzyme activity at 1 uM relative to control; design: scale not given: the % may be the effect or the level left
[3] = target: Insulin receptor (Homo sapiens) (UniProt P06213); assay: Inhibition of human activated IR assessed as enzyme activity at 1 uM relative to control; design: scale not given: the % may be the effect or the level left
[4] = target: Serine/threonine-protein kinase TBK1 (Homo sapiens) (UniProt Q9UHD2); assay: Inhibition of human TBK1 assessed as enzyme activity at 1 uM relative to control; design: scale not given: the % may be the effect or the level left
[5] = target: Platelet-derived growth factor receptor beta (Homo sapiens) (UniProt P09619); assay: Inhibition of human PDGFRbeta assessed as enzyme activity at 1 uM relative to control; design: scale not given: the % may be the effect or the level left
[6] = target: CDK3/Cyclin E (Homo sapiens) (UniProt P24864+Q00526); assay: Inhibition of human CDK3/cyclinE assessed as enzyme activity at 1 uM relative to control; type: protein-complex assay; design: scale not given: the % may be the effect or the level left
CDK3/Cyclin E (Homo sapiens), sequence (P24864 whole entry, looked up): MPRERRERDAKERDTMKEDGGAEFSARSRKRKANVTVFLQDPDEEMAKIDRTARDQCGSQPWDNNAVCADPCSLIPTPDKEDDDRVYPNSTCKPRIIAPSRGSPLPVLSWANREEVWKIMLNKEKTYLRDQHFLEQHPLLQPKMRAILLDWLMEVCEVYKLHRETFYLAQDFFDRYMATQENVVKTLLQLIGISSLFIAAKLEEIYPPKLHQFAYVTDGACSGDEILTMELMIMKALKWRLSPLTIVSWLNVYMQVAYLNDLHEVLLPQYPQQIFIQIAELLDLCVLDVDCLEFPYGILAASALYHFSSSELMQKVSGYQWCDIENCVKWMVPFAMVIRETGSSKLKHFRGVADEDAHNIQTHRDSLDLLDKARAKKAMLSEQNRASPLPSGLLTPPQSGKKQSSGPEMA
CDK3/Cyclin E (Homo sapiens), sequence (Q00526 whole entry, looked up): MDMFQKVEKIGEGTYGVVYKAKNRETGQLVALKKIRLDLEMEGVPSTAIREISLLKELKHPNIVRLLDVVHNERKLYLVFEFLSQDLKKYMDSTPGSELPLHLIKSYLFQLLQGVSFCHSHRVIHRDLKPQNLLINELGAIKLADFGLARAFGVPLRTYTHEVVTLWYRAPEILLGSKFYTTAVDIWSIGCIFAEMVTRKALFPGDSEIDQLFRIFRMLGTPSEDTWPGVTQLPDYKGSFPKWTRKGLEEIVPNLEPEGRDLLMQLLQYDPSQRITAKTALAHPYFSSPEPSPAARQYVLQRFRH

[7] = target: Serine/threonine-protein kinase PLK1 (Homo sapiens) (UniProt P53350); assay: Inhibition of human Plk1 assessed as enzyme activity at 1 uM relative to control; design: scale not given: the % may be the effect or the level left
[8] = target: Focal adhesion kinase 1 (Homo sapiens) (UniProt Q05397); assay: Inhibition of human FAK assessed as enzyme activity at 1 uM relative to control; design: scale not given: the % may be the effect or the level left
[9] = target: Protein kinase C epsilon type (Homo sapiens) (UniProt Q02156); assay: Inhibition of human PKCepsilon assessed as enzyme activity at 1 uM relative to control; design: scale not given: the % may be the effect or the level left
[10] = AUC in mouse at 30 mg/kg, po; type: ADME, organism-based; design: dose 30 mg/kg, route oral; settings: plasma
[11] = target: CDK2/Cyclin A2 (Homo sapiens) (UniProt P24941+P20248); assay: Inhibition of human CDK2/cyclinA assessed as enzyme activity at 1 uM relative to control; type: protein-complex assay; design: scale not given: the % may be the effect or the level left
[12] = target: Discoidin domain-containing receptor 2 (Homo sapiens) (UniProt Q16832); assay: Inhibition of human DDR2 assessed as enzyme activity at 1 uM relative to control; design: scale not given: the % may be the effect or the level left
[13] = target: Rho-associated protein kinase 1 (Homo sapiens) (UniProt Q13464); assay: Inhibition of human ROCK-1 assessed as enzyme activity at 1 uM relative to control; design: scale not given: the % may be the effect or the level left
[14] = target: Serine/threonine-protein kinase mTOR (Homo sapiens) (UniProt P42345); assay: Inhibition of human mTOR assessed as enzyme activity at 1 uM relative to control; design: scale not given: the % may be the effect or the level left
[15] = target: Serine/threonine-protein kinase 33 (Homo sapiens) (UniProt Q9BYT3); assay: Inhibition of human STK33 assessed as enzyme activity at 1 uM relative to control; design: scale not given: the % may be the effect or the level left
Serine/threonine-protein kinase 33 (Homo sapiens), sequence (Q9BYT3 whole entry, looked up, canonical isoform): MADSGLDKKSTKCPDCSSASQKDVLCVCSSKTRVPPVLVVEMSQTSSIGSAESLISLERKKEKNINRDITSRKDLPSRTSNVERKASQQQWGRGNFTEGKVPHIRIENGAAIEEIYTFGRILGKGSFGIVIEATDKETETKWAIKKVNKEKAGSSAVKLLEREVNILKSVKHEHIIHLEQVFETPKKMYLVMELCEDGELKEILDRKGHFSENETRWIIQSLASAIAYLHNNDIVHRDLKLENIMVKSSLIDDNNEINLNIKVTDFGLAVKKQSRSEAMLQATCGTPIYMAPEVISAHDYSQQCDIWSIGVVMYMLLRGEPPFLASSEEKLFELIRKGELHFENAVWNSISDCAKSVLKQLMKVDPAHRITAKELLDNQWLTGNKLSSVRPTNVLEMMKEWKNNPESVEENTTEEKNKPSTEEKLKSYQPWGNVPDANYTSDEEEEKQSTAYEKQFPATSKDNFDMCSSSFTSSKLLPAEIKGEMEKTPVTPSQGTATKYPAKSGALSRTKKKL

[16] = target: Casein kinase I isoform gamma-2 (Homo sapiens) (UniProt P78368); assay: Inhibition of human CK1gamma2 assessed as enzyme activity at 1 uM relative to control; design: scale not given: the % may be the effect or the level left
Casein kinase I isoform gamma-2 (Homo sapiens), sequence (P78368 whole entry, looked up, canonical isoform): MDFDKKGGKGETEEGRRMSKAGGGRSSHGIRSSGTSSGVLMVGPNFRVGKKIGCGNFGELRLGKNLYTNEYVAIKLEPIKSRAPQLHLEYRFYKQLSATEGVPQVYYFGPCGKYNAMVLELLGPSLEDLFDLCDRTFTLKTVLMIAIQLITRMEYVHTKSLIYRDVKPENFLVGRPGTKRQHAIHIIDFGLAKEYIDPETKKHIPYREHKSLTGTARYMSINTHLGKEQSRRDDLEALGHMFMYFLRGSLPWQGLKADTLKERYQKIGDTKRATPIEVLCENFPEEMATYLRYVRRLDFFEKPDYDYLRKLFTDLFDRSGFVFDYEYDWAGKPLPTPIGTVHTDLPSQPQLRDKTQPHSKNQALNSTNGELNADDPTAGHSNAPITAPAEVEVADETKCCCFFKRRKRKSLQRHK

[17] = target: Serine/threonine-protein kinase tousled-like 2 (Homo sapiens) (UniProt Q86UE8); assay: Inhibition of human TLK2 assessed as enzyme activity at 1 uM relative to control; design: scale not given: the % may be the effect or the level left
Serine/threonine-protein kinase tousled-like 2 (Homo sapiens), sequence (Q86UE8 whole entry, looked up): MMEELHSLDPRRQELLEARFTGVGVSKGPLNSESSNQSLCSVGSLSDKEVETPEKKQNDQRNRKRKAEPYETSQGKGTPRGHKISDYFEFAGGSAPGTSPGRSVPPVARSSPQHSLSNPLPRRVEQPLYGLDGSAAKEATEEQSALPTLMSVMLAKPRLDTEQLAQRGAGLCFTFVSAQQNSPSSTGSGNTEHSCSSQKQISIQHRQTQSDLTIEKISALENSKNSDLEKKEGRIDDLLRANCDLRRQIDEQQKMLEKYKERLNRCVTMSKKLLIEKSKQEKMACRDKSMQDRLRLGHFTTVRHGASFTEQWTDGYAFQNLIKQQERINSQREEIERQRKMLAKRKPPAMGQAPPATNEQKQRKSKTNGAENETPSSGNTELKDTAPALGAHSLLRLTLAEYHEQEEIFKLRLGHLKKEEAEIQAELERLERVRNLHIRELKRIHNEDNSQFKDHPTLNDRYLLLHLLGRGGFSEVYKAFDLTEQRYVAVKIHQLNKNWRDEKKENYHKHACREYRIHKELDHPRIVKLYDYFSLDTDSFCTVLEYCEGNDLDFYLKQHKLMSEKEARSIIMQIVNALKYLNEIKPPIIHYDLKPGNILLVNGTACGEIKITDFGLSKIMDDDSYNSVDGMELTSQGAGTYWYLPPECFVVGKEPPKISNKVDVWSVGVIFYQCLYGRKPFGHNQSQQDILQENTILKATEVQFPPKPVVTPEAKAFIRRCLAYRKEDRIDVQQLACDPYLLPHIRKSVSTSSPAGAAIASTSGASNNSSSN

[18] = target: Cytoplasmic tyrosine-protein kinase BMX (Homo sapiens) (UniProt P51813); assay: Inhibition of human Bmx assessed as enzyme activity at 1 uM relative to control; design: scale not given: the % may be the effect or the level left
[19] = target: cGMP-dependent protein kinase 1 (Homo sapiens) (UniProt Q13976); assay: Inhibition of human PRKG1beta assessed as enzyme activity at 1 uM relative to control; design: scale not given: the % may be the effect or the level left
[20] = target: Calcium/calmodulin-dependent protein kinase type II subunit delta (Homo sapiens) (UniProt Q13557); assay: Inhibition of human CAMK2d assessed as enzyme activity at 1 uM relative to control; design: scale not given: the % may be the effect or the level left
[21] = target: Maternal embryonic leucine zipper kinase (Homo sapiens) (UniProt Q14680); assay: Inhibition of human MELK assessed as enzyme activity at 1 uM relative to control; design: scale not given: the % may be the effect or the level left
Maternal embryonic leucine zipper kinase (Homo sapiens), sequence (Q14680 whole entry, looked up): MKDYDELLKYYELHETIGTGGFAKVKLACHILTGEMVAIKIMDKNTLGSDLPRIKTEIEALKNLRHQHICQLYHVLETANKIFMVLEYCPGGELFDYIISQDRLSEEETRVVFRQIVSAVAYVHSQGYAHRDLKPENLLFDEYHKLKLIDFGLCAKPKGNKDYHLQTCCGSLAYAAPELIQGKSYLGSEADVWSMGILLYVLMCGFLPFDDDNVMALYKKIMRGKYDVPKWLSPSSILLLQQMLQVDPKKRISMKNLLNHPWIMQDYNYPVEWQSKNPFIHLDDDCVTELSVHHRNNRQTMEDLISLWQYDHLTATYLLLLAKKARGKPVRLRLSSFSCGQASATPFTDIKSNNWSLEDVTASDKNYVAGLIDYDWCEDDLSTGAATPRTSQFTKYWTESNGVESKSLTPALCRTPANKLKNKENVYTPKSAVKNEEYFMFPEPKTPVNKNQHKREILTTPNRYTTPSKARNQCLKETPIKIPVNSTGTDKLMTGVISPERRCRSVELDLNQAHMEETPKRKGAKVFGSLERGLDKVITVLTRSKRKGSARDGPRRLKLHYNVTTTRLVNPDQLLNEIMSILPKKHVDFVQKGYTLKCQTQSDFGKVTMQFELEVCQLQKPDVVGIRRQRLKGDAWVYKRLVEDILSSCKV

[22] = target: Mitogen-activated protein kinase 13 (Homo sapiens) (UniProt O15264); assay: Inhibition of human p38delta assessed as enzyme activity at 1 uM relative to control; design: scale not given: the % may be the effect or the level left
Mitogen-activated protein kinase 13 (Homo sapiens), sequence (O15264 whole entry): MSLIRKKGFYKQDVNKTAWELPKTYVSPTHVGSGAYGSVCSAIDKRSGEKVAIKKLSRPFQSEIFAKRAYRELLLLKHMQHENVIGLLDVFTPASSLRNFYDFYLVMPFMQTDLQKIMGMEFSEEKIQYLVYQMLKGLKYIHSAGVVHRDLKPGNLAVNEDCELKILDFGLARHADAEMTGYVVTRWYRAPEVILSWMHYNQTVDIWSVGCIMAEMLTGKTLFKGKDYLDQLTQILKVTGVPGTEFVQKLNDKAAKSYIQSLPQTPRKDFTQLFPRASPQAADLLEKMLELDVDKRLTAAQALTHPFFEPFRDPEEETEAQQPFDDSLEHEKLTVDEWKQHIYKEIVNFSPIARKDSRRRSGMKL

[23] = target: Tyrosine-protein kinase JAK3 (Homo sapiens) (UniProt P52333); assay: Inhibition of human JAK3 assessed as enzyme activity at 1 uM relative to control; design: scale not given: the % may be the effect or the level left
[24] = target: Insulin-like growth factor 1 receptor (Homo sapiens) (UniProt P08069); assay: Inhibition of human IGF-1R assessed as enzyme activity at 1 uM relative to control; design: scale not given: the % may be the effect or the level left
[25] = target: Inhibitor of nuclear factor kappa-B kinase subunit alpha (Homo sapiens) (UniProt O15111); assay: Inhibition of human IKKalpha assessed as enzyme activity at 1 uM relative to control; design: scale not given: the % may be the effect or the level left
[26] = target: Tyrosine-protein kinase Lyn (Homo sapiens) (UniProt P07948); assay: Inhibition of human Lyn assessed as enzyme activity at 1 uM relative to control; design: scale not given: the % may be the effect or the level left
[27] = target: Receptor tyrosine-protein kinase erbB-4 (Homo sapiens) (UniProt Q15303); assay: Inhibition of human ErbB4 assessed as enzyme activity at 1 uM relative to control; design: scale not given: the % may be the effect or the level left
[28] = target: Tyrosine-protein kinase BTK (Homo sapiens) (UniProt Q06187); assay: Inhibition of human BTK assessed as enzyme activity at 1 uM relative to control; design: scale not given: the % may be the effect or the level left
[29] = target: Calcium/calmodulin-dependent protein kinase type IV (Homo sapiens) (UniProt Q16566); assay: Inhibition of human CAMK4 assessed as enzyme activity at 1 uM relative to control; design: scale not given: the % may be the effect or the level left
[30] = target: Serine/threonine-protein kinase Nek6 (Homo sapiens) (UniProt Q9HC98); assay: Inhibition of human NEK6 assessed as enzyme activity at 1 uM relative to control; design: scale not given: the % may be the effect or the level left
Serine/threonine-protein kinase Nek6 (Homo sapiens), sequence (Q9HC98 whole entry): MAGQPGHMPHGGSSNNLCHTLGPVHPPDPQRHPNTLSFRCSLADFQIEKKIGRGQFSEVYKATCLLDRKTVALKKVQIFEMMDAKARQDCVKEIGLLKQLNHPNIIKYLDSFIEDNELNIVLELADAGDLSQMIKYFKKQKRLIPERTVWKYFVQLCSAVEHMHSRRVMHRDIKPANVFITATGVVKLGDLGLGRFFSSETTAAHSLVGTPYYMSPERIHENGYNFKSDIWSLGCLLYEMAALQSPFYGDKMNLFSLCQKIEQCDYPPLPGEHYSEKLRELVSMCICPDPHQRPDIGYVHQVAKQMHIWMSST

[31] = Oral bioavailability in mouse at 30 mg/kg; type: ADME, organism-based; settings: in vivo
[32] = target: Protein kinase C theta type (Homo sapiens) (UniProt Q04759); assay: Inhibition of human PKCtheta assessed as enzyme activity at 1 uM relative to control; design: scale not given: the % may be the effect or the level left
[33] = target: Serine/threonine-protein kinase 3 (Homo sapiens) (UniProt Q13188); assay: Inhibition of human MST2 assessed as enzyme activity at 1 uM relative to control; design: scale not given: the % may be the effect or the level left
[34] = target: Ribosomal protein S6 kinase alpha-6 (Homo sapiens) (UniProt Q9UK32); assay: Inhibition of human Rsk4 assessed as enzyme activity at 1 uM relative to control; design: scale not given: the % may be the effect or the level left
[35] = target: Serine/threonine-protein kinase WNK3 (Homo sapiens) (UniProt Q9BYP7); assay: Inhibition of human WNK3 assessed as enzyme activity at 1 uM relative to control; design: scale not given: the % may be the effect or the level left
[36] = target: Serine/threonine-protein kinase Sgk3 (Homo sapiens) (UniProt Q96BR1); assay: Inhibition of human SGK3 assessed as enzyme activity at 1 uM relative to control; design: scale not given: the % may be the effect or the level left
Serine/threonine-protein kinase Sgk3 (Homo sapiens), sequence (Q96BR1 whole entry): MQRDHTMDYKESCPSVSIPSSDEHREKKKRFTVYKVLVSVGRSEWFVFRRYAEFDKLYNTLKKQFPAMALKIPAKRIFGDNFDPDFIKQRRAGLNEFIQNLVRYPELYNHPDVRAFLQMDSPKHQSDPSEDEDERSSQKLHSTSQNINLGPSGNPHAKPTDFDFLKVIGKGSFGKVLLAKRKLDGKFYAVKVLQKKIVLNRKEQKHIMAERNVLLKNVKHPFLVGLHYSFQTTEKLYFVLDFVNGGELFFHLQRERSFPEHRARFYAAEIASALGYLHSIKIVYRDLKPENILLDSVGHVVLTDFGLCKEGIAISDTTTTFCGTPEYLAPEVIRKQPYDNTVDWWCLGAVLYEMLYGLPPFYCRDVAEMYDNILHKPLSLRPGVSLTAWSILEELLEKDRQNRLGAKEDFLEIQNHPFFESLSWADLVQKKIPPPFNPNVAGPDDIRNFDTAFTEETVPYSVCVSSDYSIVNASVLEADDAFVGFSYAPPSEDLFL

[37] = target: Serine/threonine-protein kinase BRSK1 (Homo sapiens) (UniProt Q8TDC3); assay: Inhibition of human BrSK1 assessed as enzyme activity at 1 uM relative to control; design: scale not given: the % may be the effect or the level left
[38] = target: Dual specificity mitogen-activated protein kinase kinase 1 (Homo sapiens) (UniProt Q02750); assay: Inhibition of human MEK1 assessed as enzyme activity at 1 uM relative to control; design: scale not given: the % may be the effect or the level left
[39] = target: Vascular endothelial growth factor receptor 2 (Homo sapiens) (UniProt P35968); assay: Inhibition of human KDR assessed as enzyme activity at 1 uM relative to control; design: scale not given: the % may be the effect or the level left

Protein kinase C eta type (Homo sapiens), sequence (P24723 whole entry): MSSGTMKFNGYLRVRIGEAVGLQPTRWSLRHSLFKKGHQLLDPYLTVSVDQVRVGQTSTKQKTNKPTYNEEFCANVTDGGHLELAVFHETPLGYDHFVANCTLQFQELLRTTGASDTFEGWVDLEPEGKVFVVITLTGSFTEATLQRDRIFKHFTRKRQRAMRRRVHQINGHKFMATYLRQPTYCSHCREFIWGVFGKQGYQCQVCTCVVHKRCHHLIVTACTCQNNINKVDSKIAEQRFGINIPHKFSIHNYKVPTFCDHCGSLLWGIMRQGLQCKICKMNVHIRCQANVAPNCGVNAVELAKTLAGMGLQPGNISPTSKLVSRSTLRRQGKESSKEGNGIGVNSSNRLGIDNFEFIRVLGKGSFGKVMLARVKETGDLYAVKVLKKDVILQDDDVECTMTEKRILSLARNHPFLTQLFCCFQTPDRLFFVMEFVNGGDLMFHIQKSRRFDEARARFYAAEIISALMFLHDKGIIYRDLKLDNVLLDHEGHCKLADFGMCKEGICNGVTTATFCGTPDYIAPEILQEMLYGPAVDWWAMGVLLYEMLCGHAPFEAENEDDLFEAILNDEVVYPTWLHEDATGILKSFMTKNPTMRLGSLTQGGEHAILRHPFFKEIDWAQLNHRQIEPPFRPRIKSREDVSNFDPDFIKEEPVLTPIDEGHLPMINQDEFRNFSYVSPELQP

CCCS(=O)(=O)Nc1cccc(Nc2ccc3ncn(C)c(=O)c3c2)c1C#N
Activity [1]: 101% | Activity [2]: 103% | Activity [3]: 95% | Activity [4]: 98% | Activity [5]: 114% | Activity [6]: 106% | Activity [7]: 90.5% | Activity [8]: 102% | Activity [9]: 99.5% | AUC [10]: 483 µM·h | Activity [11]: 98.5% | Activity [12]: 100% | Activity [13]: 108% | Activity [14]: 101% | Activity [15]: 91% | Activity [16]: 99.5% | Activity [17]: 104% | Activity [18]: 91.5% | Activity [19]: 106% | Activity [20]: 94.5% | Activity [21]: 109% | Activity [22]: 96% | Activity [23]: 99% | Activity [24]: 108% | Activity [25]: 129% | Activity [26]: 98% | Activity [27]: 106% | Activity [28]: 102% | Activity [29]: 98% | Activity [30]: 116% | bioavailability [31]: 60% | Activity [32]: 97.5% | Activity [33]: 99.5% | Activity [34]: 120% | Activity [35]: 107% | Activity [36]: 108% | Activity [37]: 102% | Activity [38]: 97% | Activity [39]: 112%
